20 compounds from patent US10556905B2, “Processes for preparing a diazabicyclooctane compound” (priority 2012, dated 2020) can be followed below.

SMILES strings stand for the structures. Read-outs that look alike come from different tables or passages of the source.

For assay [1], the target named is T1, AmpC (Pseudomonas aeruginosa, UniProt P24735).
T1 construct: AmpC, TEM-1, KPC-2 or OXA-2 domain excluding signal peptide was amplified with PCR; made in house; host or cells: Escherichia coli BL21 (DE3), pET-28b(+)
T1 sequence (P24735 27-397): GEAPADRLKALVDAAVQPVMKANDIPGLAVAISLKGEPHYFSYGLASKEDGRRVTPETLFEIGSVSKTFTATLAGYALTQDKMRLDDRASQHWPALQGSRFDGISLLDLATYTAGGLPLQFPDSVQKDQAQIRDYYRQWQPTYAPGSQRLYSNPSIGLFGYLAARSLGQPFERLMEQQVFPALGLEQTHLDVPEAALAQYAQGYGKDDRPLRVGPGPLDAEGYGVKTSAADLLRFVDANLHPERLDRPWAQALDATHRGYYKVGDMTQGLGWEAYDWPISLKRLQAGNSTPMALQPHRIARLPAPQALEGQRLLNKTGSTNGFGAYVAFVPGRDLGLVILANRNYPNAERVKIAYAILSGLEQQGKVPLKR
The assay can be described thus: biochemical.

Assay [2] addresses T2, OXA-2 (Escherichia coli, UniProt P0A1V9).
T2 construct: AmpC, TEM-1, KPC-2 or OXA-2 domain excluding signal peptide was amplified with PCR; made in house; host or cells: Escherichia coli BL21 (DE3), pET-28b(+)
The assay can be described thus: biochemical. Also on record: species or system P. aeruginosa.

In assay [3] the target is T3, KPC-2 (Klebsiella pneumoniae, UniProt Q9F663).
T3 construct: AmpC, TEM-1, KPC-2 or OXA-2 domain excluding signal peptide was amplified with PCR; made in house; host or cells: Escherichia coli BL21 (DE3), pET-28b(+)
T3 sequence (Q9F663 25-293, looked up): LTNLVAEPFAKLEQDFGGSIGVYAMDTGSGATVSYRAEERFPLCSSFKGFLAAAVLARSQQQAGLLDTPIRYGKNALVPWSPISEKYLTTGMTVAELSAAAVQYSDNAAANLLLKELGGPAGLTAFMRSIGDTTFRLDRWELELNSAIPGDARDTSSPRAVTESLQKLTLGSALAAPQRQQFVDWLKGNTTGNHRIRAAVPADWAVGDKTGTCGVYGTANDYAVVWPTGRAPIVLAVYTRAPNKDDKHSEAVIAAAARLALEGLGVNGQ
As to the kind of experiment: β-Lactamase inhibitory activity (nitrocefin hydrolysis), KPC-2. The note with it: KPC-2 0.5 nM, 100 μM nitrocefin, pre-incubation 30° C. 10 minutes. The format is biochemical.

The target in assay [4] is T4, TEM-1 (Escherichia coli, UniProt P62593).
T4 construct: AmpC, TEM-1, KPC-2 or OXA-2 domain excluding signal peptide was amplified with PCR; made in house; host or cells: Escherichia coli BL21 (DE3), pET-28b(+)
T4 sequence (P62593 24-286 limits assumed): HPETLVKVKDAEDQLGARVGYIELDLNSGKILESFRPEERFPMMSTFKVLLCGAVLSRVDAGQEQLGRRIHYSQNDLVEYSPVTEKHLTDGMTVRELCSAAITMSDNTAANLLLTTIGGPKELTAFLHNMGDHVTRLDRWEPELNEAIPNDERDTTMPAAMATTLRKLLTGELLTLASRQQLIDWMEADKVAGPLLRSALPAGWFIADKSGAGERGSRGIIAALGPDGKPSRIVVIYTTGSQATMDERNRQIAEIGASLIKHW
The assay can be described thus: β-Lactamase inhibitory activity (nitrocefin hydrolysis), TEM-1. The format is biochemical. The note with it: TEM-1 0.1 nM, 100 μM nitrocefin, pre-incubation 30° C. 10 minutes. Here is the method: Using Pseudomonas aeruginosa ATCCBAA-47 genome, plasmid pBR322, Klebsiella pneumoniae ATCCBAA-1705, and P. aeruginosa MSC17696 as a template, each DNA for encoding β-lactamase, AmpC, TEM-1, KPC-2 or OXA-2 domain excluding signal peptide was amplified with PCR. Each of the PCR product was incorporated into pET-28b(+)vector (Merck), introduced into Escherichia coli BL21 (DE3) (Merck), and, under induction of 1 mM isopropyl-β-D-(−)-thiogalactopyranoside (Nacalai Tesque), cultured overnight at 20° C. to express AmpC, TEM-1, KPC-2, and OXA-2. After the bacterial cell was collected, AmpC was purified from the cell extract obtained by ultrasonic treatment, using CM Sepharose Fast Flow (GE Healthcare) and HiTrap Heparin HP (GE Healthcare) at 4° C. TEM-1 was purified with HiTrap SPHP (GE Healthcare), HiTrap Q (GE Healthcare) and Mono Q (GE Healthcare), and KPC-2 was purified with HiTrap SPHP. OXA-2 was purified with HiTrap SPHP and HiTrap Heparin HP.
For the measurement of β-lactamase inhibitory activity, 100 μM (final concentration) nitrocefin (Oxoid) was used as a substrate, and 2.5% DMSO, 10 μg/mL bovine serum derived albumin (Sigma-Aldrich) and 50 mM phosphate buffer at pH 7.0 were used as a reaction solution. […] Nitrocefin was added to each well to be mixed therein, followed by incubation at 30° C. for 20 minutes, and Multiscan Ascent (Thermo Fisher Scientific) was used to measure 492 nm wavelength, thereby measuring nitrocefin hydrolytic activity of β-Lactamase, to determine enzyme inhibitory activity. […] As the inhibitory activity strength, less than 0.1 μM, less than 1 μM, less than 3 μM, less than 10 μM, and 10 μM or more were shown with A, B, C, D, and E respectively.

Setting [5] is: OXA-2 2 nM, 100 μM nitrocefin, pre-incubation 30° C. 10 minutes, read-out: β-Lactamase inhibitory activity OXA-2 (IC50).

T2 sequence (P0A1V9 22-275): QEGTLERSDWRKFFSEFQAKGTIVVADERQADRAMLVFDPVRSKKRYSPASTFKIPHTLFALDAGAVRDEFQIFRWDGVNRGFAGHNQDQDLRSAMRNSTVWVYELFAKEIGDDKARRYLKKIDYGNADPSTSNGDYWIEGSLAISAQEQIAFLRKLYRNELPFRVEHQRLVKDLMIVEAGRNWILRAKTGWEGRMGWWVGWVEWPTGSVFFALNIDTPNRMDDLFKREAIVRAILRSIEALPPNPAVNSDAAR

On to `CC(=O)NNC(=O)[C@@H]1CC[C@@H]2CN1C(=O)N2OS(=O)(=O)O` [Example 21, Sodium (2S,5R)—N′-acetyl-7-oxo-6-(sulfooxy)-1,6-diazabicyclo[3.2.1]octane-2-carbohydrazide], for which the IC50 (in general, the point on the concentration scale where inhibition reaches its midpoint) in assay [1] was 100 to 1000 nM; in assay [2], 1000 to 3000 nM; in assay [3], 100 to 1000 nM; in assay [4], less than 100 nM.
Turning to `CCC(=O)NNC(=O)[C@@H]1CC[C@@H]2CN1C(=O)N2OS(=O)(=O)O` [Example 22, Sodium (2S,5R)-7-oxo-N′-propanoyl-6-(sulfooxy)-1,6-diazabicyclo[3.2.1]octane-2-carbohydrazide], the half-inhibitory concentration (IC50) in assay [1] is 100 to 1000 nM; in assay [2], 3000 to 10000 nM; in assay [3], 100 to 1000 nM; in assay [4], less than 100 nM.
As for `CC(C)C(=O)NNC(=O)[C@@H]1CC[C@@H]2CN1C(=O)N2OS(=O)(=O)O` [Example 23, Sodium (2S,5R)—N′-(2-methylpropanoyl)-7-oxo-6-(sulfooxy)-1,6-diazabicyclo[3.2.1]octane-2-carbohydrazide], the IC50 was 100 to 1000 nM in assay [1], 3000 to 10000 nM in assay [2], 100 to 1000 nM in assay [3] and less than 100 nM in assay [4].
For the compound `NCCC(=O)NNC(=O)[C@@H]1CC[C@@H]2CN1C(=O)N2OS(=O)(=O)O` [Example 27, (2S,5R)—N′-(3-Aminopropanoyl)-7-oxo-6-(sulfooxy)-1,6-diazabicyclo[3.2.1]octane-2-carbohydrazide], the IC50 is 100 to 1000 nM in assay [1], 1000 to 3000 nM in assay [2] (setting [5]), 1000 to 3000 nM in assay [3] and less than 100 nM in assay [4].
As to `Nc1ccc(CC(=O)NNC(=O)[C@@H]2CC[C@@H]3CN2C(=O)N3OS(=O)(=O)O)cc1` [Example 28, (2S,5R)—N′-[(4-Aminophenyl)acetyl]-7-oxo-6-(sulfooxy)-1,6-diazabicyclo[3.2.1]octane-2-carbohydrazide], the half-inhibitory concentration (IC50) in assay [1] is less than 100 nM; in assay [2] (setting [5]), 3000 to 10000 nM; in assay [3], 100 to 1000 nM; in assay [4], less than 100 nM.
Turning to `COCC(=O)NNC(=O)[C@@H]1CC[C@@H]2CN1C(=O)N2OS(=O)(=O)O` [Example 29, Sodium (2S,5R)—N′-(methoxyacetyl)-7-oxo-6-(sulfooxy)-1,6-diazabicyclo[3.2.1]octane-2-carbohydrazide], the IC50 in assay [1] is 100 to 1000 nM; in assay [2], 3000 to 10000 nM; in assay [3], 100 to 1000 nM; in assay [4], less than 100 nM.
With `Nc1ccc(C(=O)NNC(=O)[C@@H]2CC[C@@H]3CN2C(=O)N3OS(=O)(=O)O)cc1` [Example 31, (2S,5R)—N′-(4-Aminobenzoyl)-7-oxo-6-(sulfooxy)-1,6-diazabicyclo[3.2.1]octane-2-carbohydrazide], the IC50 in assay [1] was 100 to 1000 nM; in assay [2] (setting [5]), 3000 to 10000 nM; in assay [3], 100 to 1000 nM; in assay [4] it was less than 100 nM.
Consider `O=C(NNC(=O)[C@@H]1CC[C@@H]2CN1C(=O)N2OS(=O)(=O)O)C1CCOCC1` [Example 34, Sodium (2S,5R)-7-oxo-6-(sulfooxy)-N′-(tetrahydro-2H-pyran-4-ylcarbonyl)-1,6-diazabicyclo[3.2.1]octane-2-carbohydrazide], for which the IC50 in assay [1] is less than 100 nM; in assay [2] it was 3000 to 10000 nM; in assay [3] it was 100 to 1000 nM; in assay [4], less than 100 nM.
For the compound `O=C(NNC(=O)[C@@H]1CC[C@@H]2CN1C(=O)N2OS(=O)(=O)O)C1CCNCC1` [Example 35, (2S,5R)-7-Oxo-N′-(piperidine-4-ylcarbonyl)-6-(sulfooxy)-1,6-diazabicyclo[3.2.1]octane-2-carbohydrazide], the IC50 in assay [1] is 100 to 1000 nM; in assay [2] (setting [5]), 1000 to 3000 nM; in assay [3] it was 3000 to 10000 nM; in assay [4], less than 100 nM.
Taken in the same sequence, the figures for `O=C(NNC(=O)[C@@H]1CC[C@@H]2CN1C(=O)N2OS(=O)(=O)O)[C@@H]1CCCCN1` [Example 36, (2S,5R)-7-Oxo-N′-[(2S)-piperidine-2-ylcarbonyl]-6-(sulfooxy)-1,6-diazabicyclo[3.2.1]octane-2-carbohydrazide] were 100 to 1000 nM, 3000 to 10000 nM, 1000 to 3000 nM and less than 100 nM.
The corresponding values for `O=C(NNC(=O)[C@@H]1CC[C@@H]2CN1C(=O)N2OS(=O)(=O)O)[C@H]1CCCCN1` [Example 37, (2S,5R)-7-Oxo-N′-[(2R)-piperidine-2-ylcarbonyl]-6-(sulfooxy)-1,6-diazabicyclo[3.2.1]octane-2-carbohydrazide] are 1000 to 3000 nM, 1000 to 3000 nM, 1000 to 3000 nM and less than 100 nM.
Regarding `O=C(NNC(=O)[C@@H]1CC[C@@H]2CN1C(=O)N2OS(=O)(=O)O)[C@@H]1CCCN1` [Example 38, (2S,5R)-7-Oxo-N′-[(2S)-pyrrolidin-2-ylcarbonyl]-6-(sulfooxy)-1,6-diazabicyclo[3.2.1]octane-2-carbohydrazide], the IC50 was 100 to 1000 nM in assay [1], 1000 to 3000 nM in assay [2] (setting [5]), 100 to 1000 nM in assay [3] and less than 100 nM in assay [4].
In the case of `O=C(NNC(=O)[C@@H]1CC[C@@H]2CN1C(=O)N2OS(=O)(=O)O)[C@H]1CCCN1` [Example 39, (2S,5R)-7-Oxo-N′-[(2R)-pyrrolidin-2-ylcarbonyl]-6-(sulfooxy)-1,6-diazabicyclo[3.2.1]octane-2-carbohydrazide], the IC50 in assay [1] is less than 100 nM; in assay [2] (setting [5]), 1000 to 3000 nM; in assay [3] it was 1000 to 3000 nM; in assay [4], less than 100 nM.
Take `O=C(NNC(=O)[C@@H]1CC[C@@H]2CN1C(=O)N2OS(=O)(=O)O)[C@@H]1C[C@H](CC2CC2)CCN1` [Example 40, (2S,5R)—N′-{[(2S,4R)-4-Cyclopropylmethylpiperidine-2-yl]carbonyl}-7-oxo-6-(sulfooxy)-1,6-diazabicyclo[3.2.1]octane-2-carbohydrazide]: the IC50 in assay [1] was 100 to 1000 nM; in assay [2] (setting [5]), 1000 to 3000 nM; in assay [3], 3000 to 10000 nM; in assay [4] it was less than 100 nM.
Regarding `O=C1CC[C@@H](C(=O)NNC(=O)[C@@H]2CC[C@@H]3CN2C(=O)N3OS(=O)(=O)O)N1` [Example 41, Sodium (2S,5R)-7-oxo-N′-{[(2S)-5-oxopyrrolidin-2-yl]carbonyl}-6-(sulfooxy)-1,6-diazabicyclo[3.2.1]octane-2-carbohydrazide], the IC50 is 100 to 1000 nM in assay [1], 3000 to 10000 nM in assay [2], 1000 to 3000 nM in assay [3] and 100 to 1000 nM in assay [4].
As to `O=C1CC[C@H](C(=O)NNC(=O)[C@@H]2CC[C@@H]3CN2C(=O)N3OS(=O)(=O)O)N1` [Example 42, Sodium (2S,5R)-7-oxo-N′-{[(2R)-5-oxopyrrolidin-2-yl]carbonyl}-6-(sulfooxy)-1,6-diazabicyclo[3.2.1]octane-2-carbohydrazide], the IC50 lay within 100 to 1000 nM in assay [1], 1000 to 3000 nM in assay [2], 100 to 1000 nM in assay [3] and 100 to 1000 nM in assay [4].
Consider `O=C(NNC(=O)[C@@H]1CC[C@@H]2CN1C(=O)N2OS(=O)(=O)O)c1ccco1` [Example 43, Sodium (2S,5R)—N′-(furan-2-ylcarbonyl)-7-oxo-6-(sulfooxy)-1,6-diazabicyclo[3.2.1]octane-2-carbohydrazide], for which the IC50 in assay [1] is 100 to 1000 nM; in assay [2], 1000 to 3000 nM; in assay [3], 100 to 1000 nM; in assay [4], less than 100 nM.
On to `O=C(NNC(=O)[C@@H]1CC[C@@H]2CN1C(=O)N2OS(=O)(=O)O)c1cocn1` [Example 44, Sodium (2S,5R)—N′-(1,3-oxazol-4-ylcarbonyl)-7-oxo-6-(sulfooxy)-1,6-diazabicyclo[3.2.1]octane-2-carbohydrazide], for which the IC50 in assay [1] was less than 100 nM; in assay [2], 1000 to 3000 nM; in assay [3], less than 100 nM; in assay [4] it was less than 100 nM.
As to `O=C(NNC(=O)[C@@H]1CC[C@@H]2CN1C(=O)N2OS(=O)(=O)O)c1cccnc1` [Example 45, Sodium (2S,5R)-7-oxo-N′-(pyridine-3-ylcarbonyl)-6-(sulfooxy)-1,6-diazabicyclo[3.2.1]octane-2-carbohydrazide], the IC50 in assay [1] is less than 100 nM; in assay [2], 1000 to 3000 nM; in assay [3] it was 100 to 1000 nM; in assay [4], less than 100 nM.
For the compound `O=C(NNC(=O)[C@@H]1CC[C@@H]2CN1C(=O)N2OS(=O)(=O)O)c1ccncc1` [Example 46, Sodium (2S,5R)-7-oxo-N′-(pyridine-4-ylcarbonyl)-6-(sulfooxy)-1,6-diazabicyclo[3.2.1]octane-2-carbohydrazide], the IC50 was less than 100 nM in assay [1], 1000 to 3000 nM in assay [2], 100 to 1000 nM in assay [3] and less than 100 nM in assay [4].
